Test: Stability of the crystalline polymorphic forms of bifeprunox mesylate
Type: physicochemical
Conditions: for thermodynamic stability of the polymorphic form: solid crystalline form, found during further investigations, monomethanesulfonate

Row | conversion of the polymorphic form (even at high atmospheric humidity or higher temperature) | thermodynamic stability of the polymorphic form | SMILES
1 | does not undergo conversion | more thermodynamically stable | O=c1[nH]c2cccc(N3CCN(Cc4cccc(-c5ccccc5)c4)CC3)c2o1 [polymorph α, 7-[4-([1,1′-biphenyl]-3-ylmethyl)-1-piperazinyl]-2(3H)-benzoxazolone monomethanesulfonate]
2 | – | metastable | O=c1[nH]c2cccc(N3CCN(Cc4cccc(-c5ccccc5)c4)CC3)c2o1 [polymorph γ, 7-[4-([1,1′-biphenyl]-3-ylmethyl)-1-piperazinyl]-2(3H)-benzoxazolone monomethanesulfonate]
3 | – | metastable | O=c1[nH]c2cccc(N3CCN(Cc4cccc(-c5ccccc5)c4)CC3)c2o1 [polymorph δ, 7-[4-([1,1′-biphenyl]-3-ylmethyl)-1-piperazinyl]-2(3H)-benzoxazolone monomethanesulfonate]

Reference: US7405216B2, “Stable crystalline form of bifeprunox mesylate (7-[4-([1,1′-biphenyl]-3-ylmethyl)-1-piperazinyl]-2(3H)-benzoxazolone monomethanesulfonate)” (Solvay Pharmaceuticals, B.V., priority 2004, dated 2008)
